Usually IC50 stands for the midpoint of a concentration-inhibition curve. Lower therefore signals higher potency.

One assay concerns the target Human SGLT2 (hSGLT2) (Homo sapiens (Human), UniProt P31639). The experiment in a line: Inhibitory effects on human SGLT2 activities (14C-AMG uptake, sodium-dependent glucose transport assay). The assay is classed as cell-based. To be noted: hSGLT2-expressing CHO cells, 37° C. for 2 h, single determinations. The source says:
Test 1: Cloning and Cell Line Construction for Human SGLT2
Human SGLT2 (hSGLT2) gene was amplified by PCR from cDNA-Human Adult Normal Tissue Kidney (Invitrogen). The hSGLT2 sequence was cloned into pcDNA3.1(+) for mammalian expression and stably transfected into chinese hamster ovary (CHO) cells. SGLT2-expressing clones were selected based on resistance to G418 antibiotic (Geneticin) and activity in the ^14C-α-methyl-D-glucopyranoside (^14C-AMG) uptake assay.
Test 2: Inhibitory Effects on Human SGLT2 Activities
(§1) For sodium-dependent glucose transport assay, cells expressing hSGLT2 were seeded into a 96-well culture plate at a density of 5×10^4 cells/well in RPMI medium 1640 containing 10% fetal bovine serum. The cells were used 1 day after plating. They were incubated in pretreatment buffer (10 mM HEPES, 5 mM Tris, 140 mM choline chloride, 2 mM KCl, 1 mM CaCl2, and 1 mM MgCl2, pH 7.4) at 37° C. for 10 min. They were then incubated in uptake buffer (10 mM HEPES, 5 mM Tris, 140 mM NaCl, 2 mM KCl, 1 mM CaCl2, 1 mM MgCl2, and 1 mM ^14C-nonlabeled AMG pH 7.4) containing ^14C-labeled AMG (8 μM) and the inventive compound or dimethyl sulfoxide (DMSO) vehicle at 37° C. for 2 h. Cells were washed twice with washing buffer (pretreatment buffer containing 10 mM AMG at room temperature) and then the radioactivity was measured using a liquid scintillation counter. IC50 was determined by nonlinear regression analysis using GraphPad PRISM [Katsuno, K. et al. J. Pharmacol. Exp. Ther. 2007, 320, 323-330; Han, S. et al. Diabetes, 2008, 57, 1723-1729].

The next assay concerns the target Human SGLT1 (hSGLT1) (Homo sapiens (Human), UniProt P13866). Description: Inhibitory effects on human SGLT1 activities (14C-AMG uptake, sodium-dependent glucose transport assay). The settings on record: 37° C. for 2 h, single determinations. The assay is classed as cell-based. On the procedure:
Test 3: Inhibitory Effects on Human SGLT1 Activities
as §1, with “^14C-labeled” for “^14C-labeled AMG”, “inhibitor” for “the inventive compound”, “PRISM.” for “PRISM [Katsuno, K. et al. J. Pharmacol. Exp. Ther. 2007, 320, 323-330; Han, S. et al. Diabetes, 2008, 57, 1723-1729].”

Sequence of Human SGLT1 (hSGLT1) (P13866 whole entry): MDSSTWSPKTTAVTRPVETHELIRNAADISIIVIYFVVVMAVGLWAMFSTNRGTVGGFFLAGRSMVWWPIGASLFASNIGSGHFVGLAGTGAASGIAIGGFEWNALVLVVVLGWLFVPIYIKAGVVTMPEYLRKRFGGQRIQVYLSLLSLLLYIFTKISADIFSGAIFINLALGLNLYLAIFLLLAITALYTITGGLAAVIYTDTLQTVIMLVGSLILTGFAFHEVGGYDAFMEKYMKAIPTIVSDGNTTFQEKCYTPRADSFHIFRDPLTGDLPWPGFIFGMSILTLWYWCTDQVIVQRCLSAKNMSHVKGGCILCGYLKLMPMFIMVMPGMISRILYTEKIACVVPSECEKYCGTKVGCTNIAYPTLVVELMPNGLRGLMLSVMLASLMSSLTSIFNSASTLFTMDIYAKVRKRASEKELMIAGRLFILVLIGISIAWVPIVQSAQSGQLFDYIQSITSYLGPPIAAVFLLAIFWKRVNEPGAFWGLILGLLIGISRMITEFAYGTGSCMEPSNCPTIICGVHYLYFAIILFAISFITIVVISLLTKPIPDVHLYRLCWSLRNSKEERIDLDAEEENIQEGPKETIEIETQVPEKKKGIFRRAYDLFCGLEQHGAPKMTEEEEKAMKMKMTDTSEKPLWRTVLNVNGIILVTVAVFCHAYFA
Sequence of Human SGLT2 (hSGLT2) (P31639 whole entry): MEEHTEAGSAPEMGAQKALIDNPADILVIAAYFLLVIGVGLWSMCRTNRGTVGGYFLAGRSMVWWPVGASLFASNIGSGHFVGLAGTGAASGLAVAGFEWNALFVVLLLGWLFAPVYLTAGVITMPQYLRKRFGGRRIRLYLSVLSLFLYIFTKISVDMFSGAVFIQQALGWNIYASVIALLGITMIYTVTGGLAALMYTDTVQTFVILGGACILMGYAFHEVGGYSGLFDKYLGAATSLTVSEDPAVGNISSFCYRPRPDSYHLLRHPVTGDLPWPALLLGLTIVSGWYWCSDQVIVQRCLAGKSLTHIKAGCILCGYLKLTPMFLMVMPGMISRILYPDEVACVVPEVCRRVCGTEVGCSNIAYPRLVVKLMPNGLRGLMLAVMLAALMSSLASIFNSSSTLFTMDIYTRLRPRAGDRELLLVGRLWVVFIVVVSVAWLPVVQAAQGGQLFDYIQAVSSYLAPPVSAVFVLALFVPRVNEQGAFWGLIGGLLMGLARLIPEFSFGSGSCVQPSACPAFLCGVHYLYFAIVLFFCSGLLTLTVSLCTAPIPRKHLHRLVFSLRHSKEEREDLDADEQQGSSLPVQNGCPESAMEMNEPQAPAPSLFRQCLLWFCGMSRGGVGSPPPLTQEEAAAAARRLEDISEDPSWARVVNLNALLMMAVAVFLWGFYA

Take `COc1ccc(Cc2cc([C@@H]3O[C@H](CO)[C@@H](O)[C@H](O)[C@H]3O)c3c(c2C)CCC3)cc1` [Compound E005, (2R,3S,4R,5R,6S)-2-(Hydroxymethyl)-6-(6-(4-methoxybenzyl)-7-methyl-2,3-dihydro-1H-inden-4-yl)tetrahydro-2H-pyran-3,4,5-triol]: the 50% inhibitory concentration (IC50) on Human SGLT2 (hSGLT2) stood at 0.79 nM; at Human SGLT1 (hSGLT1) it was 26.8 nM.
Consider `COc1ccc(Cc2cc([C@@H]3O[C@H](CO)[C@@H](O)[C@H](O)[C@H]3O)c3c(c2Cl)SCCC3)cc1` [Compound E036, (2S,3R,4R,5S,6R)-2-(8-Chloro-7-(4-methoxybenzyl)thiochroman-5-yl)-6-(hydroxymethyl)tetrahydro-2H-pyran-3,4,5-triol], for which the IC50 turned out to be 0.55 nM against Human SGLT2 (hSGLT2) and 10.7 nM at Human SGLT1 (hSGLT1).
The like results for `CCOc1ccc(Cc2cc([C@@H]3O[C@H](CO)[C@@H](O)[C@H](O)[C@H]3O)c3c(c2Br)CCC3)cc1` [Compound E002, (2S,3R,4R,5S,6R)-2-(7-Bromo-6-(4-ethoxybenzyl)-2,3-dihydro-1H-inden-4-yl)-6-(hydroxymethyl)tetrahydro-2H-pyran-3,4,5-triol] were, in that order, 0.75 nM and 62.7 nM.
`CCc1ccc(Cc2cc([C@@H]3O[C@H](CO)[C@@H](O)[C@H](O)[C@H]3O)c3c(c2Cl)OCO3)cc1` [Compound E026, (2S,3R,4R,5S,6R)-2-(7-Chloro-6-(4-ethylbenzyl)benzo[d][1,3]dioxol-4-yl)-6-(hydroxymethyl)tetrahydro-2H-pyran-3,4,5-triol]: the values for the IC50 at Human SGLT2 (hSGLT2) and at Human SGLT1 (hSGLT1) were 0.4 nM and 86.9 nM, respectively.
For `CCOc1ccc(Cc2cc([C@@H]3O[C@H](SC)[C@@H](O)[C@H](O)[C@H]3O)c3c(c2Cl)CC(C)O3)cc1` (stereo partly drawn) [Compound E020, (2S,3R,4R,5S,6R)-2-(4-Chloro-5-(4-ethoxybenzyl)-2-methyl-2,3-dihydrobenzofuran-7-yl)-6-(methylthio)tetrahydro-2H-pyran-3,4,5-triol] the same measures were 0.69 nM and 115 nM.
The like results for `COc1ccc(Cc2cc([C@@H]3O[C@H](SC)[C@@H](O)[C@H](O)[C@H]3O)c3c(c2Cl)CCC3)cc1` [Compound E048, (2S,3R,4R,5S,6R)-2-(7-Chloro-6-(4-methoxybenzyl)-2,3-dihydro-1H-inden-4-yl)-6-(methylthio)tetrahydro-2H-pyran-3,4,5-triol] were, in that order, 0.5 nM and 33.7 nM.
The like results for `COc1ccc(Cc2cc([C@@H]3O[C@H](CO)[C@@H](O)[C@H](O)[C@H]3O)c3c(c2Cl)CCC3)cc1` [Compound E004, (2S,3R,4R,5S,6R)-2-(7-Chloro-6-(4-methoxybenzyl)-2,3-dihydro-1H-inden-4-yl)-6-(hydroxymethyl)tetrahydro-2H-pyran-3,4,5-triol] were, in that order, 0.68 nM and 37.2 nM.
With `COc1ccc(Cc2cc([C@@H]3O[C@H](CO)[C@@H](O)[C@H](O)[C@H]3O)c3c(c2Cl)CCO3)cc1` [Compound E012, (2S,3R,4R,5S,6R)-2-(4-Chloro-5-(4-methoxybenzyl)-2,3-dihydrobenzofuran-7-yl)-6-(hydroxymethyl)tetrahydro-2H-pyran-3,4,5-triol], the 50% inhibitory concentration (IC50) on Human SGLT2 (hSGLT2) amounted to 1.7 nM; against Human SGLT1 (hSGLT1) it was 34.4 nM.
The like results for `OC[C@H]1O[C@@H](c2cc(Cc3ccc(C4CCC4)cc3)c(Cl)c3c2OCCC3)[C@H](O)[C@@H](O)[C@@H]1O` [Compound E062, (2S,3R,4R,5S,6R)-2-(5-Chloro-6-(4-cyclobutylbenzyl)chroman-8-yl)-6-(hydroxymethyl)tetrahydro-2H-pyran-3,4,5-triol] were, in that order, 1.1 nM and 163 nM.
Turning to `CCOc1ccc(Cc2cc([C@@H]3O[C@H](CO)[C@@H](O)[C@H](O)[C@H]3O)c3c(c2C)CCCC3)cc1` [Compound E047, (2S,3R,4R,5S,6R)-2-(3-(4-Ethoxybenzyl)-4-methyl-5,6,7,8-tetrahydronaphthalen-1-yl)-6-(hydroxymethyl)tetrahydro-2H-pyran-3,4,5-triol], the 50% inhibitory concentration (IC50) at Human SGLT2 (hSGLT2) stood at 1.3 nM; on Human SGLT1 (hSGLT1), 27.1 nM.
For `CCc1ccc(Cc2cc([C@@H]3O[C@H](CO)[C@@H](O)[C@H](O)[C@H]3O)c3c(c2Cl)SCC3)cc1` [Compound E035, (2S,3R,4R,5S,6R)-2-(7-Chloro-6-(4-ethylbenzyl)-2,3-dihydrobenzo[b]thiophen-4-yl)-6-(hydroxymethyl)tetrahydro-2H-pyran-3,4,5-triol] the same measures were 0.87 nM and 53 nM.
The like results for `CCc1ccc(Cc2cc([C@@H]3O[C@H](CO)[C@@H](O)[C@H](O)[C@H]3O)c3c(c2C)OCO3)cc1` [Compound E064, (2S,3R,4R,5S,6R)-2-(6-(4-Ethylbenzyl)-7-methylbenzo[d][1,3]dioxol-4-yl)-6-(hydroxymethyl)tetrahydro-2H-pyran-3,4,5-triol] were, in that order, 1.1 nM and 38.3 nM.
For `CCc1ccc(Cc2cc([C@@H]3O[C@H](CO)[C@@H](O)[C@H](O)[C@H]3O)c3c(c2C)CCCC3)cc1` [Compound E044, (2S,3R,4R,5S,6R)-2-(3-(4-Ethylbenzyl)-4-methyl-5,6,7,8-tetrahydronaphthalen-1-yl)-6-(hydroxymethyl)tetrahydro-2H-pyran-3,4,5-triol] the same measures were 0.59 nM and 10.4 nM.
`COc1ccc(Cc2cc([C@@H]3O[C@H](CO)[C@@H](O)[C@H](O)[C@H]3O)c3c(c2Cl)CCCC3)cc1` [Compound E038, (2S,3R,4R,5S,6R)-2-(4-Chloro-3-(4-methoxybenzyl)-5,6,7,8-tetrahydronaphthalen-1-yl)-6-(hydroxymethyl)tetrahydro-2H-pyran-3,4,5-triol]: the half-inhibitory concentration (IC50) on Human SGLT2 (hSGLT2) is 0.6 nM; at Human SGLT1 (hSGLT1), 9.6 nM.
The like results for `OC[C@H]1O[C@@H](c2cc(Cc3cc4ccccc4s3)c(Cl)c3c2OCO3)[C@H](O)[C@@H](O)[C@@H]1O` [Compound E053, (2S,3R,4R,5S,6R)-2-(6-(Benzo[b]thiophen-2-ylmethyl)-7-chlorobenzo[d][1,3]dioxol-4-yl)-6-(hydroxymethyl)tetrahydro-2H-pyran-3,4,5-triol] were, in that order, 1.5 nM and 41 nM.
As to `CCOc1ccc(Cc2cc([C@@H]3O[C@H](CO)[C@@H](O)[C@H](O)[C@H]3O)c3c(c2C)OCO3)cc1` [Compound E065, (2S,3R,4R,5S,6R)-2-(6-(4-Ethoxybenzyl)-7-methylbenzo[d][1,3]dioxol-4-yl)-6-(hydroxymethyl)tetrahydro-2H-pyran-3,4,5-triol], the half-inhibitory concentration (IC50) on Human SGLT2 (hSGLT2) was 1.6 nM; against Human SGLT1 (hSGLT1), 155 nM.
In the case of `OC[C@H]1O[C@@H](c2cc(Cc3ccc(C4CC4)cc3)c(Cl)c3c2CCS3)[C@H](O)[C@@H](O)[C@@H]1O` [Compound E060, (2S,3R,4R,5S,6R)-2-(7-Chloro-6-(4-cyclopropylbenzyl)-2,3-dihydrobenzo[b]thiophen-4-yl)-6-(hydroxymethyl)tetrahydro-2H-pyran-3,4,5-triol], the half-maximal inhibitory concentration (IC50) at Human SGLT2 (hSGLT2) came to 0.67 nM; against Human SGLT1 (hSGLT1) it was 40.9 nM.
Regarding `CCOc1ccc(Cc2cc([C@@H]3O[C@H](CO)[C@@H](O)[C@H](O)[C@H]3O)c3c(c2Br)CCCC3)cc1` [Compound E058, (2S,3R,4R,5S,6R)-2-(4-Bromo-3-(4-ethoxybenzyl)-5,6,7,8-tetrahydronaphthalen-1-yl)-6-(hydroxymethyl)tetrahydro-2H-pyran-3,4,5-triol], the half-inhibitory concentration (IC50) against Human SGLT2 (hSGLT2) amounted to 0.87 nM; on Human SGLT1 (hSGLT1), 17.1 nM.
For `COc1ccc(Cc2cc([C@@H]3O[C@H](SC)[C@@H](O)[C@H](O)[C@H]3O)c3c(c2Cl)CCCO3)cc1` [Compound E029, (2S,3R,4R,5S,6R)-2-(5-Chloro-6-(4-methoxybenzyl)chroman-8-yl)-6-(methylthio)tetrahydro-2H-pyran-3,4,5-triol], the IC50 was found to be 0.47 nM against Human SGLT2 (hSGLT2) and 21.1 nM against Human SGLT1 (hSGLT1).
As to `COc1ccc(Cc2cc([C@@H]3O[C@H](CO)[C@@H](O)[C@H](O)[C@H]3O)c3c(c2Cl)CCS3)cc1` [Compound E030, (2S,3R,4R,5S,6R)-2-(4-Chloro-5-(4-methoxybenzyl)-2,3-dihydrobenzo[b]thiophen-7-yl)-6-(hydroxymethyl)tetrahydro-2H-pyran-3,4,5-triol], the IC50 was found to be 2.3 nM against Human SGLT2 (hSGLT2) and 171 nM on Human SGLT1 (hSGLT1).

The values are drawn from patent US9340521B2, “Method for dual inhibition of SGLT1 and SGLT2 using diphenylmethane derivatives” (GREEN CROSS CORPORATION, priority 2013, dated 2016).
